Among the data in patent publication USRE48711E1, “Apoptosis signal-regulating kinase inhibitors” (Gilead Sciences, Inc., priority 2009, dated 2021) are IC50 values, retold here.

ASK1 (Apoptosis Signal-Regulating Kinase 1), sequence (Q99683 649-946): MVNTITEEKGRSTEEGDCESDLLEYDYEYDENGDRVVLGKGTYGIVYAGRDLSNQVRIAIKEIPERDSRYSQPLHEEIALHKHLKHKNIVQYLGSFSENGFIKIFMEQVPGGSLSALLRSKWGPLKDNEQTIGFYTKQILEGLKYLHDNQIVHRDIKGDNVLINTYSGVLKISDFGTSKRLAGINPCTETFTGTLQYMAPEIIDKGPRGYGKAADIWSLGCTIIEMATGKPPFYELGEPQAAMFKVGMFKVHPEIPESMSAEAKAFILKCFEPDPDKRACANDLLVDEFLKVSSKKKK

The first experiment addresses ASK1 (Apoptosis Signal-Regulating Kinase 1) (Homo sapiens (Human), UniProt Q99683). Nature of the experiment: ASK1 (Apoptosis Signal-Regulating Kinase 1) TR-FRET Kinase Assay (Biochemical IC50).
Conditions: not given
For orientation: In TR-FRET formats the signal depends on donor and acceptor labels being close together.
The IC50 is the midpoint of a concentration-inhibition curve. High values mean lower potency, low ones higher potency. As to `C[C@@H](O)Cn1cnnc1-c1cccc(NC(=O)c2cc(-c3cccnc3)ccn2)c1` [Example 34, (R)-N-(3-(4-(2-hydroxypropyl)-4H-1,2,4-triazol-3-yl)phenyl)-3,4′-bipyridine-2′-carboxamide], the IC50 is 195 nM.

The experiment is the same for the next values; noted with them: TR-FRET, biotin-MBP substrate, 20 min pre-incubation, ATP added as 300 μM solution.
For the molecule `O=C(Nc1cccc(-c2nncn2C2CC2)c1)c1cccc(-c2ccc(C3CC3)nc2)n1` [Example 263, 6′-cyclopropyl-N-(3-(4-cyclopropyl-4H-1,2,4-triazol-3-yl)phenyl)-2,3′-bipyridine-6-carboxamide], 3600 nM corresponded to half-maximal inhibition (IC50). In turn, `CN1CCc2c(ncn2-c2ccnc(C(=O)Nc3cccc(-c4nncn4C4CC4)n3)c2)C1C(F)(F)F` (stereo not shown) [Example 256, N-(6-(4-cyclopropyl-4H-1,2,4-triazol-3-yl)pyridin-2-yl)-4-(5-methyl-4-(trifluoromethyl)-4,5,6,7-tetrahydro-1H-imidazo[4,5-c]pyridin-1-yl)picolinamide] had an IC50 of 4 nM. The same measure, in the same setting: next, `CC(c1ccccc1)n1cnnc1-c1cccc(NC(=O)c2cc(-n3cnc(C4CC4)c3)ccn2)c1` (stereo not shown) [Example 186, 4-(4-cyclopropyl-1H-imidazol-1-yl)-N-(3-(4-(1-phenylethyl)-4H-1,2,4-triazol-3-yl)phenyl)picolinamide]: 30 nM. Consider `Cc1cccc(C)c1OC[C@H](C)n1cnnc1-c1cccc(NC(=O)c2cc(-c3ccc(C4CC4)nc3)ccn2)c1` [Example 239, (S)-6-cyclopropyl-N-(3-(4-(1-(2,6-dimethylphenoxy)propan-2-yl)-4H-1,2,4-triazol-3-yl)phenyl)-3,4′-bipyridine-2′-carboxamide], for which the IC50 amounted to 10900 nM. On the same count and under the same terms, in the case of `Cc1ncn(-c2ccnc(C(=O)Nc3cccc(-c4nncn4C4CC4)c3)c2)c1C` [Example 43, N-(3-(4-cyclopropyl-4H-1,2,4-triazol-3-yl)phenyl)-4-(4,5-dimethyl-1H-imidazol-1-yl)picolinamide] it was 8 nM; in that of `O=C(Nc1cccc(-c2nncn2C2CC2)c1)c1cc(-c2nc(C3CC3)no2)ccn1` [Example 254, 4-(3-cyclopropyl-1,2,4-oxadiazol-5-yl)-N-(3-(4-cyclopropyl-4H-1,2,4-triazol-3-yl)phenyl)picolinamide], 1270 nM. Same read-out and setting: in the case of `CCc1ncc(-c2ccnc(C(=O)Nc3cccc(-c4nncn4C4CC4)c3)c2)cc1F` [Example 138, N-(3-(4-cyclopropyl-4H-1,2,4-triazol-3-yl)phenyl)-6-ethyl-5-fluoro-3,4′-bipyridine-2′-carboxamide] it was 8 nM; in that of `CCS(=O)(=O)c1ccc(-c2ccnc(C(=O)Nc3cccc(-c4nncn4C4CC4)c3)c2)cc1` [Example 117, N-(3-(4-cyclopropyl-4H-1,2,4-triazol-3-yl)phenyl)-4-(4-(ethylsulfonyl)phenyl)picolinamide], 12 nM. Regarding `COCCNc1ccc(-c2ccnc(C(=O)Nc3cccc(-c4nncn4C4CC4)c3)c2)cn1` [Example 136, N-(3-(4-cyclopropyl-4H-1,2,4-triazol-3-yl)phenyl)-6-(2-methoxyethylamino)-3,4′-bipyridine-2′-carboxamide], half-maximal inhibition (IC50) required 7 nM. Still for that read-out and setting: in the case of `O=C(Nc1cccc(-c2nncn2C2CC2)n1)c1cccc(-c2ccc(C3CC3)nc2)c1` [Example 151, N-(6-(4-cyclopropyl-4H-1,2,4-triazol-3-yl)pyridin-2-yl)-3-(6-cyclopropylpyridin-3-yl)benzamide] it was 8 nM; in that of `O=C(Nc1cccc(-c2nncn2C2CCOCC2)c1)c1cc(-c2cccnc2)ccn1` [Example 26, N-(3-(4-(tetrahydro-2H-pyran-4-yl)-4H-1,2,4-triazol-3-yl)phenyl)-3,4′-bipyridine-2′-carboxamide], 1970 nM. The molecule `CCc1cc(-c2ccnc(C(=O)Nc3cccc(-c4nncn4C4CC4)c3)c2)cnc1CC` [Example 141, N-(3-(4-cyclopropyl-4H-1,2,4-triazol-3-yl)phenyl)-5,6-diethyl-3,4′-bipyridine-2′-carboxamide] registered an IC50 of 13 nM. Molecule `O=C(Nc1cc(F)cc(-c2nncn2C2CC2)c1)c1cc(-c2cccnc2)ccn1` [Example 169, N-(3-(4-cyclopropyl-4H-1,2,4-triazol-3-yl)-5-fluorophenyl)-3,4′-bipyridine-2′-carboxamide] gave an IC50 of 157 nM. On the same count and under the same terms, in the case of `CC(C)N1CCc2ncc(-c3ccnc(C(=O)Nc4cccc(-c5nncn5C5CC5)c4)c3)cc2C1` [Example 172, N-(3-(4-cyclopropyl-4H-1,2,4-triazol-3-yl)phenyl)-4-(6-isopropyl-5,6,7,8-tetrahydro-1,6-naphthyridin-3-yl)picolinamide] it was 17 nM. The molecule `Cc1c(C(=O)O)ncn1-c1cccc(C(=O)Nc2cccc(-c3nncn3C3CC3)n2)c1` [Example 213, 1-(3-(6-(4-cyclopropyl-4H-1,2,4-triazol-3-yl)pyridin-2-ylcarbamoyl)phenyl)-5-methyl-1H-imidazole-4-carboxylic acid] returned a half-maximal inhibitory concentration (IC50) of 11 nM. Turning to `CS(=O)(=O)c1ccccc1-c1ccnc(C(=O)Nc2cccc(-c3nncn3C3CC3)c2)c1` [Example 78, N-(3-(4-cyclopropyl-4H-1,2,4-triazol-3-yl)phenyl)-4-(2-(methylsulfonyl)phenyl)picolinamide], 572 nM corresponded to half-maximal inhibition (IC50). The molecule `C[C@H](n1cnnc1-c1cccc(NC(=O)c2cc(-c3ccc(C4CC4)nc3)ccn2)n1)C(F)(F)F` [Example 179, (S)-6-cyclopropyl-N-(6-(4-(1,1,1-trifluoropropan-2-yl)-4H-1,2,4-triazol-3-yl)pyridin-2-yl)-3,4′-bipyridine-2′-carboxamide] gave an IC50 of 19 nM. Same read-out and setting: in the case of `CCNc1ccc(-c2ccnc(C(=O)Nc3cccc(-c4nncn4C4CC4)c3)c2)cn1` [Example 119, N-(3-(4-cyclopropyl-4H-1,2,4-triazo1-3-yl)phenyl)-6-(ethylamino)-3,4′-bipyridine-2′-carboxamide] it was 9 nM; in that of `O=C(Nc1cccc(-c2nncn2C2CC2)n1)c1cccc(-n2cnc(C3CC3)c2)c1` [Example 192, 3-(4-cyclopropyl-1H-imidazol-1-yl)-N-(6-(4-cyclopropyl-4H-1,2,4-triazol-3-yl)pyridin-2-yl)benzamide], 7 nM.

`O=C(Nc1cccc(-c2nncn2C2CC2)n1)c1cc(-n2cnc3c2CCCC3)ccn1` [Example 187, N-(6-(4-cyclopropyl-4H-1,2,4-triazol-3-yl)pyridin-2-yl)-4-(4,5,6,7-tetrahydro-1H-benzo[d]imidazol-1-yl)picolinamide] showed an IC50 of 4 nM. `O=C(Nc1cccc(-c2nncn2C2CC2)c1)c1cc(-c2ccc(C3CCCC3)nc2)ccn1` [Example 109, 6-cyclopentyl-N-(3-(4-cyclopropyl-4H-1,2,4-triazol-3-yl)phenyl)-3,4′-bipyridine-2′-carboxamide] returned a concentration for half-maximal inhibition (IC50) of 21 nM.

As to `CS(=O)(=O)c1ccc(-c2ccnc(C(=O)Nc3cccc(-c4nncn4C4CC4)n3)c2)cc1` [Example 101, N-(6-(4-cyclopropyl-4H-1,2,4-triazol-3-yl)pyridin-2-yl)-4-(4-(methylsulfonyl)phenyl)picolinamide], half-maximal inhibition (IC50) was put at 7 nM. Same read-out and setting: in the case of `O=C(Nc1cccc(-c2nncn2C2CC2)c1)c1cc(-c2cnc3ccccc3c2)cc(C(F)(F)F)n1` [Example 125, N-(3-(4-cyclopropyl-4H-1,2,4-triazol-3-yl)phenyl)-4-(quinolin-3-yl)-6-(trifluoromethyl)picolinamide] it was 1450 nM. On the same count and under the same terms, next, `O=C(Nc1cccc(-c2nncn2C2CC2)c1)c1cc(-c2cnc3ccccn23)ccn1` [Example 69, N-(3-(4-cyclopropyl-4H-1,2,4-triazol-3-yl)phenyl)-4-(imidazo[1,2-a]pyridin-3-yl)picolinamide]: 11 nM. Still for that read-out and setting: next, `CC(C)n1cnnc1-c1cccc(NC(=O)c2cc(-c3ccc(C4CC4)nc3)ccn2)c1` [Example 219, 6-cyclopropyl-N-(3-(4-isopropyl-4H-1,2,4-triazol-3-yl)phenyl)-3,4′-bipyridine-2′-carboxamide]: 16 nM. `O=C(Nc1cccc(-c2nncn2C2CC2)c1)c1cc(-n2cnc(C(F)(F)C(F)(F)F)c2)ccn1` [Example 198, N-(3-(4-cyclopropyl-4H-1,2,4-triazol-3-yl)phenyl)-4-(4-(perfluoroethyl)-1H-imidazol-1-yl)picolinamide] registered a half-maximal inhibitory concentration (IC50) of 19 nM. Same read-out and setting: next, `O=C(Nc1cccc(-c2nncn2C2CC2)c1)c1cc(-c2ccc(OC3CC3)nc2)ccn1` [Example 104, 6-cyclopropoxy-N-(3-(4-cyclopropyl-4H-1,2,4-triazol-3-yl)phenyl)-3,4′-bipyridine-2′-carboxamide]: 12 nM; `O=C(Nc1cccc(-c2cncn2C2CC2)c1)c1cc(-c2cccnc2)ccn1` [Example 72, N-(3-(1-cyclopropyl-1H-imidazol-5-yl)phenyl)-3,4′-bipyridine-2′-carboxamide]: 36 nM. Still for that read-out and setting: next, `Cc1ncn(-c2cccc(C(=O)Nc3cccc(-c4nncn4[C@@H](C)C(F)(F)F)n3)c2)c1C` [Example 216, (S)-3-(4,5-dimethyl-1H-imidazol-1-yl)-N-(6-(4-(1,1,1-trifluoropropan-2-yl)-4H-1,2,4-triazol-3-yl)pyridin-2-yl)benzamide]: 8 nM; `CC(C)NS(=O)(=O)c1ccc(-c2ccnc(C(=O)Nc3cccc(-c4nncn4C4CC4)c3)c2)cc1` [Example 99, N-(3-(4-cyclopropyl-4H-1,2,4-triazol-3-yl)phenyl)-4-(4-(N-isopropylsulfamoyl)phenyl)picolinamide]: 17 nM. On the same count and under the same terms, in the case of `CN(C)c1ccc(-c2ccnc(C(=O)Nc3cccc(-c4nncn4C4CC4)c3)c2)cn1` [Example 91, N-(3-(4-cyclopropyl-4H-1,2,4-triazol-3-yl)phenyl)-6-(dimethylamino)-3,4′-bipyridine-2′-carboxamide] it was 18 nM; in that of `O=C(Nc1cccc(-c2nncn2C2CC2)n1)c1ccc(Cl)c(-n2cnc(C3CC3)c2)c1` [Example 227, 4-chloro-3-(4-cyclopropyl-1H-imidazol-1-yl)-N-(6-(4-cyclopropyl-4H-1,2,4-triazol-3-yl)pyridin-2-yl)benzamide], 8 nM; in that of `NS(=O)(=O)c1ccc(-c2ccnc(C(=O)Nc3cccc(-c4nncn4C4CC4)c3)c2)cc1` [Example 97, N-(3-(4-cyclopropyl-4H-1,2,4-triazol-3-yl)phenyl)-4-(4-sulfamoylphenyl)picolinamide], 81 nM.
